According to paper PMC4682634 (PLoS ONE, 2015):

Molecular target: T1, endogenous BK channel (Rattus norvegicus, UniProt Q62976)
T1 construct: gene Kcnma1; endogenous BK in A7r5 smooth muscle cells
Assay: whole-cell patch-clamp, paxilline-sensitive current density in A7r5 cells
Format: cell-based

T1 sequence (Q62976 whole entry): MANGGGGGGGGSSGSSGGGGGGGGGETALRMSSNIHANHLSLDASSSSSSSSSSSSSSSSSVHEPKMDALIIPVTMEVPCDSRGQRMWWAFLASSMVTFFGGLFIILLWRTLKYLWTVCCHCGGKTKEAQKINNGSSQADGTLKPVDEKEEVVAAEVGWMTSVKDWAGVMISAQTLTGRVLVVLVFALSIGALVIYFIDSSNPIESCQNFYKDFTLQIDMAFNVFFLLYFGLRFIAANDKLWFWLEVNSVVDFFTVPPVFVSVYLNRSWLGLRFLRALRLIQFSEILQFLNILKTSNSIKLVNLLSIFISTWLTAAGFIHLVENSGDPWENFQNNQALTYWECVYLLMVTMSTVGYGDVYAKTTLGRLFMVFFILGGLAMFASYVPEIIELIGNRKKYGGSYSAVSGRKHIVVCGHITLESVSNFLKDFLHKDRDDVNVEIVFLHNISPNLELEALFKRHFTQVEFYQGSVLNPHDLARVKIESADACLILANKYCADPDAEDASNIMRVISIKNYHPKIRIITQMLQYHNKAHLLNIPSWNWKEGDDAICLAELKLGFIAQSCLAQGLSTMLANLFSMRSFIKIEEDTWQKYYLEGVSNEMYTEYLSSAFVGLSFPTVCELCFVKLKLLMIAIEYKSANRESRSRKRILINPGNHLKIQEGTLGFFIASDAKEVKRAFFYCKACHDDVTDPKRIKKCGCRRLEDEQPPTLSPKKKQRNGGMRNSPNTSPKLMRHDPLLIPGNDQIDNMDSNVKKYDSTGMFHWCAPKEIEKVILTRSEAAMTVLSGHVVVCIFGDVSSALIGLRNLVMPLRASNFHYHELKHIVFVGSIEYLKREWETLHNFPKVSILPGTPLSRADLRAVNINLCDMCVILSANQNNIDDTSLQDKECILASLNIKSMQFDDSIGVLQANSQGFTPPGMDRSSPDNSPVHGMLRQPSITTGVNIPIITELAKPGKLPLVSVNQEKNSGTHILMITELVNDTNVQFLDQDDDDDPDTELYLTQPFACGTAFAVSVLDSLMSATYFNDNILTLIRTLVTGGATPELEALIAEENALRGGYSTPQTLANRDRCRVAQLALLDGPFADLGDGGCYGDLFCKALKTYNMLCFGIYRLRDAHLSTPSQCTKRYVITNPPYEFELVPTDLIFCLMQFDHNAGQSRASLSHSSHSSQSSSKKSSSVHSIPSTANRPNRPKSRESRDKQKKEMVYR

Compound: COc1cc(/C=C/C(=O)CC(=O)/C=C/c2ccc(O)c(OC)c2)ccc1O [curcumin]
- EC50: 6.93 ± 0.78 µM
